Consider 1 molecule from paper PMC10823468, “Design, Synthesis, and Evaluation of New 1H-Benzo[d]imidazole Based PqsR Inhibitors as Adjuvant Therapy for Pseudomonas aeruginosa Infections” (Journal of Medicinal Chemistry, 2024).

For the experiment, the system named is AQ production in P. aeruginosa laboratory strains and CF isolates. The experiment is described as follows: Alkyl quinolone (AQ: HHQ, PQS, HQNO) quantification by LC-MS/MS. The experiment is classed as cell-based, Pseudomonas aeruginosa. An excerpt: PqsR directly regulates the biosynthesis of diverse AQs, of which HHQ and PQS act as QS molecules, while others such as 2-heptyl- 4-hydroxyquinoline N-oxide (HQNO) are potent cytochrome bc1 inhibitors that contribute to the environmental competitiveness of this pathogen.[9],[28] Previous studies have shown that PQS is a multifunctional iron chelator acting via PqsR-dependent and PqsR-independent pathways, contributing directly to iron acquisition and microvesicle formation.[29] […] PqsR inhibition reduces production of AQ, which can be quantified to serve as a direct readout for pqs system inhibition.[9] To this end, 6f was incubated with various P. aeruginosa laboratory strains and CF isolates and its impact on AQ production determined quantitatively using LCMS/MS and compared with untreated samples.
For each test sample, 100 μL of sterile filtered supernatant was spiked with 10 μL of an internal standard solution (10 μM d4-PQS in MeOH) and diluted with water to a total volume of 500 μL. Samples were then extracted three times with an 0.5 mL aliquot of ethyl acetate, vortex mixing the aqueous/organic mix for 2 min, then removing the organic phase once the layers had successfully partitioned. For each sample, the combined organic extracts were dried under vacuum and redissolved in 100 μL of MeOH prior to analysis. For the LC-MS/MS analysis of supernatant extracts, the chromatography was achieved using a Shimadzu series 10AD VP LC system (Columbia, MD, USA). The LC column, maintained at 40 °C, was a Phenomenex Gemini C18 (3.0 μm, 100 mm × 3.0 mm) (Macclesfield, Cheshire, UK) with an appropriate guard column. Mobile phase A was 0.1% (v/v) formic acid in water containing 2 mM 2-picolinic acid, and mobile phase B 0.1% (v/v) formic acid in methanol. The flow rate throughout the chromatographic separation was 450 μL/min. After an injection of a 2 μL/sample, a binary gradient, beginning initially at 30% B, increased linearly to 99% B over 5 min. The composition remained at 99% B for 3 min, decreased to 30% B over 1 min, and stayed at this composition for 4 min, to allow for column equilibration. The MS system used for analyte detection was an Applied Biosystems Qtrap 4000 hybrid triple-quadrupole linear ion trap mass spectrometer (Foster City, CA, USA), equipped with an electrospray ionization (ESI) interface. Instrument control, data collection, and analysis were conducted using Analyst software (Foster City, CA, USA). […] Where chromatographic peaks for HHQ, HQNO, and PQS were detected, a peak area was determined, and analyte peak area/internal standard peak area calcdulated.

Regarding `CC(C)n1c(NCC(O)COc2ccc(CC#N)cc2)nc2ccc(Cl)cc21` (centres unmarked) [Compound 6f, 2-(4-(3-((6-Chloro-1-isopropyl-1H-benzo[d]imidazol-2-yl)amino)-2-hydroxypropoxy)phenyl) Acetonitrile], the “HHQ and PQS levels” value is, setting by setting: (0.2 μM 6f, IPCD1331) “no significant reduction”; (0.2 μM 6f, PAO1-L, PA14 and IPCD48 CF isolate, vs untreated) “substantially reduced”. In addition, the HQNO concentrations entry (0.2 μM 6f, IPCD1451 CF isolate) was “nonsignificant reduction”. Further, the AQ production result (0.2 μM 6f, LESB58 strain) is reported as “moderate but significant reduction”. Besides, the inhibition at 0.2 µM (Pseudomonas aeruginosa, read-out: HQNO inhibition) lay within 20 to 60%.

For orientation: inhibition means the drop in the measured response relative to a control, in per cent.
